The record followed here is patent US20150126364A1, “1,3-DIARYL-SUBSTITUTED HETEROCYCLIC PESTICIDES” (E I DU PONT DE NEMOURS AND COMPANY, priority 2012, published 2015).

Each structure is given as a SMILES string.

The subject of the test is potato leafhopper (Empoasca fabae). In words: Test D: control of potato leafhopper on Soleil bean plant, contact and/or systemic. To be noted: 144 h, 6 days, very good to excellent control, read-out: control efficacy: mortality; for mortality at 250 ppm: sprayed at 250 ppm; for mortality at 50 ppm: sprayed at 50 ppm. Type of test: in vivo. As for the experimental part:
Test compounds were formulated using a solution containing 10% acetone, 90% water and 300 ppm X-77® Spreader Lo-Foam Formula non-ionic surfactant containing alkylarylpolyoxyethylene, free fatty acids, glycols and isopropanol (Loveland Industries, Inc. Greeley, Colo., USA). The formulated compounds were applied in 1 mL of liquid through a SUJ2 atomizer nozzle with ⅛ JJ custom body (Spraying Systems Co., Wheaton, Ill., USA) positioned 1.27 cm (0.5 inches) above the top of each test unit. Test compounds were sprayed at 250 ppm and/or 50 ppm, and replicated three times. After spraying of the formulated test compound, each test unit was allowed to dry for 1 h and then a black, screened cap was placed on top. The test units were held for 6 days in a growth chamber at 25° C. and 70% relative humidity. Plant feeding damage was then visually assessed based on foliage consumed.
For evaluating control of potato leafhopper (Empoasca fabae) through contact and/or systemic means, the test unit consisted of a small open container with a 5-6-day-old Soleil bean plant (primary leaves emerged) inside. White sand was added to the top of the soil and one of the primary leaves was excised prior to application.
Test compounds were formulated and sprayed at 250 ppm and/or 50 ppm, and the tests were replicated three times as described for Test A. After spraying, the test units were allowed to dry for 1 h before they were post-infested with 5 potato leafhoppers (18-21-day-old adults). A black, screened cap was placed on the top of each test unit, and the test units were held for 6 days in a growth chamber at 24° C. and 70% relative humidity. Each test unit was then visually assessed for insect mortality.

By mortality is commonly meant the percentage killed. For `Cn1c(-c2cccc(C(F)(F)F)c2)nc(CN2CCOCC2)c1-c1ccc(F)cc1F` (single isomer, unassigned) [Compound 49, 4-[[5-(2,4-difluorophenyl)-1-methyl-2-[3-(trifluoromethyl)phenyl]-1H-imidazol-4-yl]methyl]morpholine], the mortality at 250 ppm is not below 80%.

Consider `COC(=O)C1CCN(Cc2cc(-c3cccc(C(F)(F)F)c3)nn2-c2ccc(F)cc2)CC1` [Compound 6, methyl 1-[[1-(4-fluorophenyl)-3-[3-(trifluoromethyl)phenyl]-1H-pyrazol-5-yl]methyl]-4-piperidinecarboxylate], for which the mortality at 50 ppm is not below 80% and the mortality at 250 ppm was not below 80%. Regarding `Fc1ccc(-c2[nH]c(-c3cccc(C(F)(F)F)c3)nc2CN2CCOCC2)c(F)c1` [Compound 44, 4-[[5-(2,4-difluorophenyl)-2-[3-(trifluoromethyl)phenyl]-1H-imidazol-4-yl]methyl]morpholine], the mortality at 50 ppm is not below 80% and the mortality at 250 ppm was not below 80%. Consider `CC(=O)NC1CCN(Cc2oc(-c3cccc(C(F)(F)F)c3)nc2-c2ccc(F)cc2)CC1` [Compound 65, N-[1-[[4-(4-fluorophenyl)-2-[3-(trifluoromethyl)phenyl]-5-oxazolyl]methyl]-4-piperidinyl]acetamide], for which the mortality at 50 ppm was not below 80% and the mortality at 250 ppm is not below 80%. Consider `N#CC1CCN(Cc2c(-c3ccc(F)cc3F)nc3n2CCc2ccc(Cl)cc2-3)CC1` [Compound 151], for which the mortality at 250 ppm was not below 80%. On the same count and under the same terms, with `N#CC1CCN(Cc2c(-c3ccc(F)cc3F)nc3n2CCc2cc(Cl)ccc2-3)CC1` [Compound 155] the figure was not below 80%.
